# Experimental data from patent EP1285920A1, “C10 Ester sustituted taxanes as antitumor agents” (Florida State University Research Foundation, Inc., priority 2001, dated 2003).
# Read-outs that look alike come from different tables or passages of the source.
# Legend:
# [1] = test system: A2780 ovarian carcinoma; settings: for Mean Score: tumor scoring system
# Protocol: Dosing was initiated on Day 1. […] Taxotere was given i.v. on a qd x 1 schedule at a dose of 70 mg/kg. […] The study was terminated on Day 60. Treatment groups are detailed in Table 7.
# [2] = test system: Panc-1 pancreatic carcinoma; assay: In vivo evaluation against Panc-1 human pancreatic carcinoma (Example 17)
# [3] = test system: A375 melanoma; settings: for Complete Response / Partial Response / Stable Disease / Survivors / Toxic Deaths: number of mice; for Mean Score: tumor scoring system
# Protocol: Dosing was initiated on Day 1. […] Taxotere was given i.v. on a qd x 1 schedule at a dose of 70 mg/kg. […] The study was terminated on Day 60. Treatment groups are detailed in Table 9.
# [4] = test system: DU145 prostate carcinoma; settings: DU145
# Description: Dosing was initiated on Day 1. […] Treatment groups are detailed in Table 5.
# [5] = number of mice, Taxol i.p. qd x 5, 15 mg/kg daily, 5 mice
# [6] = number of mice, i.v. qd x 1 at estimated MTD (Taxol 24 mg/kg, Taxotere 70 mg/kg, 0983 72.6 mg/kg), 5 mice/group (Taxotere 6), Day 60
# [7] = number of mice, i.v. qd x 1, mg/kg: Taxol 36, 0499 77, 0503 72.6, 0670 123.1, 0706 107.6, 0838 72.6, 0854 76.9, 6 mice/group, Day 60
# [8] = Taxol i.p. qd x 5, 18 mg/kg daily, 6 mice
# [9] = i.v. qd x 1 at estimated MTD (Taxol 24 mg/kg, Taxotere 70 mg/kg), 6 mice/group (Taxotere 7)
# [10] = i.v. qd x 1 at estimated MTD (Taxol 24 mg/kg, Taxotere 70 mg/kg), 6 mice/group (Taxotere 7), Day 60
structure (smiles),measurement,setting,value
"CC(=O)O[C@H]1C(=O)[C@@]2(C)[C@H]([C@H](OC(=O)c3ccccc3)[C@]3(O)C[C@H](OC(=O)[C@H](O)[C@@H](NC(=O)c4ccccc4)c4ccccc4)C(C)=C1C3(C)C)[C@]1(OC(C)=O)CO[C@@H]1C[C@@H]2O [Taxol, paclitaxel, reference compound]",toxicity,"[1]; A2780, Taxol i.p. 15 mg/kg qd x 5 (Group 3)",highly toxic
same,mice succumbed to drug-related side effects,"[1]; A2780, Taxol i.p. 15 mg/kg qd x 5 (Group 3), five mice",four
same,antitumor activity,"[1]; A2780, i.v. qd x 1",moderately efficacious
same,survival extension compared to Group 1 controls,"[1]; A2780, i.v. qd x 1",87%
same,MDS,"[1]; A2780, i.v. qd x 1 (compounds estimated MTD; Taxol 24 mg/kg split; Taxotere 70 mg/kg), days until tumor 2.0 g, ended Day 60",21.9 days
same,Stable Disease,"[1]; A2780, i.v. qd x 1, five mice per group",One
same,MDS (n),"[1]; mean days of survival until neoplasm reached 2.0 g, i.v. qd x 1 at estimated MTD (Taxol 24 mg/kg, Taxotere 70 mg/kg, 0983 72.6 mg/kg), 5 mice/group (Taxotere 6), terminated Day 60",21.9 ± 5.5 (5) days
same,Complete Response,[1]; [5],0
same,Partial Respons,[1]; [5],0
same,Stable Disease,[1]; [5],0
same,Survivors,[1]; [5],0
same,Toxic Deaths,[1]; [5],4
same,Toxic Deaths,"[1]; number of mice, i.v. qd x 1 at estimated MTD (Taxol 24 mg/kg, Taxotere 70 mg/kg, 0983 72.6 mg/kg), 5 mice/group (Taxotere 6)",0
same,Complete Response,[1]; [6],0
same,Partial Respons,[1]; [6],0
same,Stable Disease,[1]; [6],0
same,Survivors,[1]; [6],1
same,Mean Score,"[1]; Taxol i.p. qd x 5, 15 mg/kg daily, 5 mice",0.6 ± 0.6
same,Mean Score,"[1]; i.v. qd x 1 at estimated MTD (Taxol 24 mg/kg, Taxotere 70 mg/kg, 0983 72.6 mg/kg), 5 mice/group (Taxotere 6)",1.8 ± 0.4
same,survival extension compared to Group 1 controls,"[2]; Panc-1 (Example 17), Taxol 36 mg/kg i.v. qd x 1, three mice",126%
same,Toxic Deaths,"[2]; Panc-1 (Example 17), i.v. qd x 1, six mice per group",Three
same,Toxic Deaths,"[2]; number of mice, i.v. qd x 1, mg/kg: Taxol 36, 0499 77, 0503 72.6, 0670 123.1, 0706 107.6, 0838 72.6, 0854 76.9, 6 mice/group",3
same,Complete Response,[2]; [7],0
same,Partial Response,[2]; [7],0
same,Stable Disease,[2]; [7],0
same,Survivors,[2]; [7],0
same,Mean Score,"[2]; tumor scoring system, i.v. qd x 1, mg/kg: Taxol 36, 0499 77, 0503 72.6, 0670 123.1, 0706 107.6, 0838 72.6, 0854 76.9, 6 mice/group",1.6 ± 0.7
same,toxicity,"[3]; A375, Taxol i.p. 18 mg/kg qd x 5",highly toxic
same,animals died of toxicity,"[3]; A375, Taxol i.p. 18 mg/kg qd x 5, six animals",six
same,survival extension compared to Group 1 controls,"[3]; A375, i.v. qd x 1",26%
same,MDS,"[3]; A375, i.v. qd x 1 (Taxol 24 mg/kg split; Taxotere 70 mg/kg), days until tumor 2.0 g, ended Day 60",18.1 days
same,MDS (n),"[3]; mean days of survival until neoplasm reached 2.0 g, i.v. qd x 1 at estimated MTD (Taxol 24 mg/kg, Taxotere 70 mg/kg), 6 mice/group (Taxotere 7), terminated Day 60",18.1 ± 0.6 (4) days
same,Complete Response,[3]; [8],0
same,Partial Response,[3]; [8],0
same,Stable Disease,[3]; [8],0
same,Survivors,[3]; [8],0
same,Toxic Deaths,[3]; [8],6
same,Toxic Deaths,[3]; [9],2
same,Complete Response,[3]; [10],0
same,Partial Response,[3]; [10],0
same,Stable Disease,[3]; [10],0
same,Survivors,[3]; [10],0
same,Mean Score,[3]; [8],0 ± 0
same,Mean Score,[3]; [9],0.8 ± 0.3
same,increase in survival compared to Group 1 controls,[4]; Taxol 24 mg/kg i.v. qd x 1,9%
same,toxicity,[4]; Taxol i.p. 18 mg/kg qd x 5 (Group 3),highly toxic
same,mice died of drug-related side effects,"[4]; Taxol i.p. 18 mg/kg qd x 5 (Group 3), five mice",five
same,MDS,"[4]; i.v. qd x 1 (compounds estimated MTD; Taxol 24 mg/kg split), days until tumor 1.5 g, ended Day 91",37.4 days
